Measured values from ChEMBL document CHEMBL1148794, “Structure-activity relationship of a series of inhibitors of monoacylglycerol hydrolysis--comparison with effects upon fatty acid amide hydrolase” (J Med Chem, 2007).

How the values were obtained:
[1] = target: T1, Monoglyceride lipase (Rattus norvegicus) (UniProt Q8R431); test: (§1) Inhibition of MGL in rat cerebellum cytosolic fractions assessed as [3H]2-oleoylglycerol hydrolysis; type: tissue-based
T1 sequence (whole entry): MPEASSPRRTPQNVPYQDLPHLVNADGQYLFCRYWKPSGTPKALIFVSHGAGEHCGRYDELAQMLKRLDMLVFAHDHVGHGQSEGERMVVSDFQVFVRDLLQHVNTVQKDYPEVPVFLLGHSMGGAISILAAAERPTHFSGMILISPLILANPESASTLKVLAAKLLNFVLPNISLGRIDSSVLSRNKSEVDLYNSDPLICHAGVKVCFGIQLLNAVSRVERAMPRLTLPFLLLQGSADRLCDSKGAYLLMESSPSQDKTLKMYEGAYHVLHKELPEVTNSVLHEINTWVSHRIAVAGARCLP

[2] = target: T2, Monoglyceride lipase (Rattus norvegicus, UniProt Q8R431); test: as §1; type: tissue-based
T2 sequence (Q8R431 whole entry): T1 sequence (whole entry)

[3] = target: T1, Monoglyceride lipase (Rattus norvegicus); test: (§2) Inhibition of MGL in rat cerebellum membrane fractions assessed as [3H]2-oleoylglycerol hydrolysis; type: cell membranes
[4] = target: T1, Monoglyceride lipase (Rattus norvegicus); test: Inhibition of MGL in rat cerebellum membrane fractions assessed as [3H]2-oleoylglycerol hydrolysis at 100 uM; type: cell membranes
[5] = target: T3, Fatty-acid amide hydrolase 1 (Rattus norvegicus) (UniProt P97612); test: (§3) Inhibition of FAAH in rat cerebellum membranes assessed as [3H]anandamide hydrolysis; type: cell membranes; conditions: Membrane
T3 sequence (whole entry): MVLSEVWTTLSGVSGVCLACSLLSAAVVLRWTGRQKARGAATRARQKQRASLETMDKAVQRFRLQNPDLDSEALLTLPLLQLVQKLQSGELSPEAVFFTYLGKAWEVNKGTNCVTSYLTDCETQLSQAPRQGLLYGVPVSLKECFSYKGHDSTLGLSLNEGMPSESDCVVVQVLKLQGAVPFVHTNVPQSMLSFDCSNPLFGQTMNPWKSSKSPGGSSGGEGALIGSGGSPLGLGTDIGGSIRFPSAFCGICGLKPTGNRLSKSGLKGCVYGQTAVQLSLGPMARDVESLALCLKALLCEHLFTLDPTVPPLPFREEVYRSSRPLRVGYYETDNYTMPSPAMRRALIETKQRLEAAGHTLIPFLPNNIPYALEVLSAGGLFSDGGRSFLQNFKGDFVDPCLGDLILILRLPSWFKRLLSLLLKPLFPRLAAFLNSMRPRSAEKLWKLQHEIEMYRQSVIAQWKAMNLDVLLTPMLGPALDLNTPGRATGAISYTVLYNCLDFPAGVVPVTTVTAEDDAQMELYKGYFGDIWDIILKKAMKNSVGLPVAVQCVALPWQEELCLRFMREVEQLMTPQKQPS

[6] = target: T4, Fatty-acid amide hydrolase 1 (Rattus norvegicus, UniProt P97612); test: as §3; type: cell membranes, Membrane
T4 sequence (P97612 whole entry): T3 sequence (whole entry)

[7] = target: T1, Monoglyceride lipase (Rattus norvegicus); test: Inhibition of MGL in rat cerebellum cytosolic fractions assessed as [3H]2-oleoylglycerol hydrolysis at 100 uM; type: tissue-based
[8] = target: T2, Monoglyceride lipase; test: as §2; type: cell membranes

Structure (SMILES)	pI50 (-log I50, M) [1]	IC50 [2]	Log I50 [3]	inhibition [4]	pI50 (-log10 of IC50 in M) [5]	IC50 [6]	inhibition [7]	IC50 [8]
CCCCC/C=C\C/C=C\C/C=C\C/C=C\CCCC(=O)OCc1ccc2c(c1)OCO2	4.35	45 µM	< 4	3%	4	91 µM	–	–
CCCCC/C=C\C/C=C\C/C=C\C/C=C\CCCC(=O)OC[C@@H]1COC(C)(C)O1	< 4	–	< 4	38%	4.76	17 µM	46%	–
CCCCC/C=C\C/C=C\C/C=C\C/C=C\CCCC(=O)OC[C@H]1CO1	5.2	6.3 µM	< 4	–	–	6 µM	–	–
CCCCC/C=C\C/C=C\C/C=C\C/C=C\CCCC(=O)OC[C@H]1COC(C)(C)O1	4.22	60 µM	< 4	34%	4.55	28 µM	–	–
CCCCC/C=C\C/C=C\C/C=C\C/C=C\CCCC(=O)NC[C@@H]1CCCO1	5.5	3.5 µM	4.1	–	4.16	69 µM	59%	70 µM
CCCCC/C=C\C/C=C\C/C=C\C/C=C\CCCC(=O)NCC1CCCO1 (centres undefined)	4.47	34 µM	< 4	44%	4.25	56 µM	–	–
CCCCC/C=C\C/C=C\C/C=C\C/C=C\CCCC(=O)OCC1CCCO1 (centres undefined)	4.67	21 µM	4.1	–	4.48	33 µM	–	75 µM
CCCCC/C=C\C/C=C\C/C=C\C/C=C\CCCC(=O)NC[C@H]1CCCO1	4.59	25 µM	4.09	–	4.01	99 µM	–	81 µM
CCCCC/C=C\C/C=C\C/C=C\C/C=C\CCCC(=O)OC[C@@H]1CO1	5.1	8 µM	< 4	–	–	12 µM	–	–
CCCCC/C=C\C/C=C\C/C=C\C/C=C\CCCC(=O)OCCC1OCC(C)(C)CO1	4.57	27 µM	4	–	4.68	21 µM	–	99 µM
CCCCC/C=C\C/C=C\C/C=C\C/C=C\CCCC(=O)OCC1COC(C)(C)O1 (racemic)	4.3	45 µM	4	–	4	98 µM	–	95 µM
CCCCC/C=C\C/C=C\C/C=C\C/C=C\CCCC(=O)OCC1CCCCO1 (racemic)	5.26	5.6 µM	4.58	–	4.3	51 µM	–	26 µM
CCCCC/C=C\C/C=C\CCCCCCCC(=O)OCC1CO1 (racemic)	–	–	–	18%	–	–	–	–
CCCCCCCC/C=C\CCCCCCCC(=O)OCC1CO1 (racemic)	< 4	–	< 4	8%	4.96	11 µM	6%	–
CCCCCC/C=C\CCCCCCCC(=O)OCC1CO1 (racemic)	4.87	13 µM	4.55	–	5.09	8.2 µM	84%	28 µM
CC/C=C\C/C=C\C/C=C\CCCCCCCC(=O)OCC1CCCCO1 (racemic)	4.64	23 µM	< 4	33%	4.73	19 µM	–	–
CCCCCCCC/C=C\CCCCCCCC(=O)OCC1CCCCO1 (racemic)	< 4	–	< 4	35%	4.53	29 µM	12%	–
O=C(OCC1CO1)c1ccc(-c2ccccc2)cc1 (racemic)	< 4	–	< 4	9%	4.45	35 µM	43%	–
O=C(OCC1CCCCO1)c1ccccc1-c1ccccc1 (racemic)	< 4	–	< 4	47%	4.37	43 µM	38%	–
O=C(OCC1CCCCO1)c1cccc(-c2ccccc2)c1 (racemic)	< 4	–	< 4	49%	4.75	18 µM	36%	–
O=C(OCC1CCCCO1)c1ccc(-c2ccccc2)cc1 (racemic)	< 4	–	4.1	–	4.49	32 µM	43%	80 µM
O=C(OCC1CCCCO1)c1ccccc1 (racemic)	5.5	3 µM	< 4	24%	4.28	53 µM	53%	–
CCCCC/C=C\C/C=C\C/C=C\C/C=C\CCCC(=O)NCC1COC(C)(C)O1 (racemic)	4.8	15 µM	< 4	45%	4.05	90 µM	71%	–
CCCCC/C=C\C/C=C\C/C=C\C/C=C\CCCC(=O)OCC1CO1 (racemic)	–	–	4.72	–	–	12 µM	–	19 µM
O=C(OCC1CO1)c1cccc(-c2ccccc2)c1 (racemic)	< 4	–	< 4	19%	4.22	61 µM	40%	–
CC/C=C\C/C=C\C/C=C\CCCCCCCC(=O)OCC1CO1 (racemic)	4.97	11 µM	4.3	–	5.8	1.6 µM	–	50 µM
CCCCC/C=C\C/C=C\CCCCCCCC(=O)OCC1CCCCO1 (racemic)	4.1	73 µM	< 4	38%	5.13	7.5 µM	–	–
